Molecular target: T1, recombinant IL4I1 (Homo sapiens, UniProt Q96RQ9)
T1 construct: purchased R&D Systems 5684-AO-020
T1 sequence (Q96RQ9 22-567): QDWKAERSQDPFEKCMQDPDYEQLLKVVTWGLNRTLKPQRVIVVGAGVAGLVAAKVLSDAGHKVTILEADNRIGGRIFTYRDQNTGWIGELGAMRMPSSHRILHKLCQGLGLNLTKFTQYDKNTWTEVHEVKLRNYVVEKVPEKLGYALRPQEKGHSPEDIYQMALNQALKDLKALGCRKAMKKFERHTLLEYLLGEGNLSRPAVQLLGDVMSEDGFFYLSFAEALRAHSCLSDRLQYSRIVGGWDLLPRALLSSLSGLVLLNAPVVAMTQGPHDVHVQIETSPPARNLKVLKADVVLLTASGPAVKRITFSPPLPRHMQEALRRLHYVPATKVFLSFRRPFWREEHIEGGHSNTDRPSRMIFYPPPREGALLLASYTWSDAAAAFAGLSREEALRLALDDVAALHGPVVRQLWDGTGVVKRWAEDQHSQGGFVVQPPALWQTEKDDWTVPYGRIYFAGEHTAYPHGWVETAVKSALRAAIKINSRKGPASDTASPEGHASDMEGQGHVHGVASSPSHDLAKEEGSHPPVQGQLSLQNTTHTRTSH
Assay: IL4I1 Enzymatic Assay (Amplex Red/HRP coupled detection of H2O2, fluorescence)
Type: biochemical
Settings: 1 nM recombinant IL4I1; four-hour pre-incubation with compound; 1 mM each Phe, Tyr, Trp; ten-point titration
Summary of the method: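 H2O2 output was coupled to resorufin fluorescence (ex 544/em 590) via 0.05 mM Amplex Red and 1 U/mL HRP. Substrate: Phe, Tyr, Trp at 1 mM each; enzyme 1 nM, 4 h compound pre-incubation, 120 min reaction, pH 7.0 Hepes. EC50 by nonlinear four-parameter regression, 1:3 ten-point titration.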

EC50 [nM]	SMILES
692	Cc1ccc(-n2cc(C(=O)NCc3ccc(-c4cccc(F)c4F)nn3)nn2)c(C)n1 [Example 117, N-((6-(2,3-difluorophenyl)pyridazin-3-yl)methyl)-1-(2,6-dimethylpyridin-3-yl)-1H-1,2,3-triazole-4-carboxamide]
31	Cc1ccc(-n2cc(C(=O)NCc3ccc(-c4ccsc4)nn3)nn2)c(C)n1 [Example 118, 1-(2,6-dimethylpyridin-3-yl)-N-((6-(thiophen-3-yl)pyridazin-3-yl)methyl)-1H-1,2,3-triazole-4-carboxamide]
482	Cc1ccc(-n2cc(C(=O)NCc3ccc(-c4ccccc4Cl)nn3)nn2)c(C)n1 [Example 119, N-((6-(2-chlorophenyl)pyridazin-3-yl)methyl)-1-(2,6-dimethylpyridin-3-yl)-1H-1,2,3-triazole-4-carboxamide]
123	Cc1ccc(-n2cc(C(=O)NCc3ccc(-c4cccc(F)c4)nn3)nn2)c(C)n1 [Example 120, 1-(2,6-dimethylpyridin-3-yl)-N-((6-(3-fluorophenyl)pyridazin-3-yl)methyl)-1H-1,2,3-triazole-4-carboxamide]
24	Cc1ccc(-n2cc(C(=O)NCc3ccc(-c4cccs4)nn3)nn2)c(C)n1 [Example 121, 1-(2,6-dimethylpyridin-3-yl)-N-((6-(thiophen-2-yl)pyridazin-3-yl)methyl)-1H-1,2,3-triazole-4-carboxamide]
571	Cc1ccc(-n2cc(C(=O)NCc3ccc(-c4sccc4C)nn3)nn2)c(C)n1 [Example 122, 1-(2,6-dimethylpyridin-3-yl)-N-((6-(3-methylthiophen-2-yl)pyridazin-3-yl)methyl)-1H-1,2,3-triazole-4-carboxamide]
223	Cc1ccc(-n2cc(C(=O)NCc3ccc(-c4cc(F)ccc4F)nn3)nn2)c(C)n1 [Example 123, N-((6-(2,5-difluorophenyl)pyridazin-3-yl)methyl)-1-(2,6-dimethylpyridin-3-yl)-1H-1,2,3-triazole-4-carboxamide]

More lines, now with the values behind:

SMILES	EC50 [nM]
Cc1ccc(-n2cc(C(=O)NCc3nnc(-c4cccc(F)c4C)s3)nn2)c(C)n1 [Example 110, 1-(2,6-dimethylpyridin-3-yl)-N-((5-(3-fluoro-2-methylphenyl)-1,3,4-thiadiazol-2-yl)methyl)-1H-1,2,3-triazole-4-carboxamide]	312
Cc1ccc(-n2cc(C(=O)NCc3nnc(-c4ccc(F)cc4Cl)s3)nn2)c(C)n1 [Example 111, N-((5-(2-chloro-4-fluorophenyl)-1,3,4-thiadiazol-2-yl)methyl)-1-(2,6-dimethylpyridin-3-yl)-1H-1,2,3-triazole-4-carboxamide]	727
Cc1ccc(-n2cc(C(=O)NCc3nnc(-c4ccccc4Cl)s3)nn2)c(C)n1 [Example 112, N-((5-(2-chlorophenyl)-1,3,4-thiadiazol-2-yl)methyl)-1-(2,6-dimethylpyridin-3-yl)-1H-1,2,3-triazole-4-carboxamide]	82
Cc1ccc(-n2cc(C(=O)NCc3nnc(-c4ccc(Cl)cc4)s3)nn2)c(C)n1 [Example 113, N-((5-(4-chlorophenyl)-1,3,4-thiadiazol-2-yl)methyl)-1-(2,6-dimethylpyridin-3-yl)-1H-1,2,3-triazole-4-carboxamide]	838
Cc1ccc(-n2cc(C(=O)NCc3nnc(-c4ccccc4F)s3)nn2)c(C)n1 [Example 114, 1-(2,6-dimethylpyridin-3-yl)-N-((5-(2-fluorophenyl)-1,3,4-thiadiazol-2-yl)methyl)-1H-1,2,3-triazole-4-carboxamide]	37
Cc1ccc(-n2cc(C(=O)NCc3nnc(-c4ccc(O)cc4)s3)nn2)c(C)n1 [Example 115, 1-(2,6-dimethylpyridin-3-yl)-N-((5-(4-hydroxyphenyl)-1,3,4-thiadiazol-2-yl)methyl)-1H-1,2,3-triazole-4-carboxamide]	36
Cc1ccc(-n2cc(C(=O)NCc3ccc(-c4ccccc4F)nn3)nn2)c(C)n1 [Example 116, 1-(2,6-dimethylpyridin-3-yl)-N-((6-(2-fluorophenyl)pyridazin-3-yl)methyl)-1H-1,2,3-triazole-4-carboxamide]	74

Source: patent US20240336608A1, “IL4I1 INHIBITORS AND METHODS OF USE” (Merck Sharp & Dohme LLC, priority 2023, published 2024)
